# Test results from ChEMBL document CHEMBL1201862, “PubChem BioAssay data set” (2004).
# Activity calls are given as the source filed them.
# Experiments:
# [1] = control 3'UTR Renilla luciferase suppression, dose response, counter-screen for Shn3 inhibitor project, cell-based, Clone20-Shn3RL, cherry-picked (AID 624133); format: functional
# [2] = reduction of Shn3 3'UTR firefly luciferase signal, dose response, Schnurri-3 inhibitor project, cell-based, Clone20 osteoblasts, cherry-pick, set 2 (AID 720490); format: functional;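 also: actives lower the luminescence signal as inhibitors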
# [3] = inhibitors of control Renilla luciferase reporter, dose response, counter-screen for Shn3 3'UTR targeting project, Clone20-Shn3RL cells, dual-Glo, cherry-pick, set 2 (AID 720724); format: functional, cell-based; conditions: Dual-Go Shn3RL
# [4] = Shn3 3'UTR reporter inhibitors, dose response, cell-based, Clone20 osteoblasts, firefly luciferase, cherry-picked (AID 624132); format: functional;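 also: firefly luciferase luminescence from reporter carrying the Shn3 3'UTR in osteoblasts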
# [5] = HepG2 cell cytotoxicity, dose response, cytotoxicity control for Shn3 inhibitor project, CellTiter-Glo, cherry-picked (AID 624134); format: functional, cell-based
# [6] = target: T1, Probable nicotinate-nucleotide adenylyltransferase (Staphylococcus aureus (strain N315), UniProt P65502); format: functional, Staphylococcus aureus subsp. aureus N315; conditions: read-out: IC50_Mean;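 as to IC50 Mean: confirmatory dose-response retesting of NadD inhibitor hits first found in an ultra-high-throughput screen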
# T1 sequence (P65502 whole entry): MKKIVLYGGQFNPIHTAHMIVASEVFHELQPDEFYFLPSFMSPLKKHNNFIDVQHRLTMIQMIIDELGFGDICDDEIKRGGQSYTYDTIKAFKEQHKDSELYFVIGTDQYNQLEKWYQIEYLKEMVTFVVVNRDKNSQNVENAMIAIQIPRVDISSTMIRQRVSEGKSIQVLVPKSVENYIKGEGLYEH
# [7] = target: T1, Probable nicotinate-nucleotide adenylyltransferase; format: functional, Staphylococcus aureus subsp. aureus N315
# Kallikrein-7 = Kallikrein-7 (Homo sapiens, UniProt P49862); assay: Fluorescence Intensity-based biochemical primary high throughput dose response assay to identify activators of kallikrein-7 (K7) zymogen.
# Chain of Kallikrein-7 (P49862 whole entry): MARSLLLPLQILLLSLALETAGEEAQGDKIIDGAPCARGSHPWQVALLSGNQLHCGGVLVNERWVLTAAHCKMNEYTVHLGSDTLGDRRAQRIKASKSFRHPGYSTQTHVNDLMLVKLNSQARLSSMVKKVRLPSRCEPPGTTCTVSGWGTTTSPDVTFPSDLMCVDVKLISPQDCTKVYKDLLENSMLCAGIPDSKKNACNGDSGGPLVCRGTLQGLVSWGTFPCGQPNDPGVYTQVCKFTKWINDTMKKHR
# [8] = Luminescence Cell-Based Dose Retest to Confirm Inhibitors of Cancer Stem Cells. [Related pubchem assays (depositor defined):AID2717, AID2721]; format: functional; conditions: Homo sapiens
# [9] = AlphaScreen signal interference compounds, dose response, artefact control for ARNT-TACC3 interaction inhibitor project, biochemical, luminescence, cherry-pick (AID 651705); format: functional;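 also: AlphaScreen bead proximity signal that flags compounds interfering with the detection technology; potency reflects signal decrease which marks the compound as an assay artifact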
# Streptococcus = assay: Group A Streptococcus viability loss, dose response, counter-screen for streptokinase expression inhibitor project, luminescence, BacTiterGlo (AID 1915); format: functional, organism-based;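 also: potency for reduction of bacterial viability or growth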
# [10] = test system: Streptococcus sp. 'group A'; assay: growth inhibition of control SK(-) GAS strain, dose response, counter-screen for streptokinase expression inhibitor project, luminescence, kanamycin, BacTiterGlo, confirmation (AID 1900); format: functional, organism-based
# INS1 = assay: beta cell apoptosis inhibitors, cytokine rescue, dose response, luminescence, retest (AID 449756); format: functional, cell-based; conditions: Rattus norvegicus;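 also: cell death triggered by IL-1 beta plus TNF-alpha plus IFN-gamma mixture; protective hits raise ATP signal compared with cytokine alone wells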
# [11] = target: COUP transcription factor 2 (Homo sapiens, UniProt P24468); assay: Luminescence-based cell-based high throughput dose response assay to identify inhibitors of COUP-TFII (NR2F2).; format: functional;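 also: HEK293 cells transiently cotransfected with COUP-TFII expression vector and reporter; luciferase reporter luminescence driven by COUP-TFII from the pX2-168 reporter plasmid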
# Chain of COUP transcription factor 2 (P24468 whole entry, the tested form may be a part): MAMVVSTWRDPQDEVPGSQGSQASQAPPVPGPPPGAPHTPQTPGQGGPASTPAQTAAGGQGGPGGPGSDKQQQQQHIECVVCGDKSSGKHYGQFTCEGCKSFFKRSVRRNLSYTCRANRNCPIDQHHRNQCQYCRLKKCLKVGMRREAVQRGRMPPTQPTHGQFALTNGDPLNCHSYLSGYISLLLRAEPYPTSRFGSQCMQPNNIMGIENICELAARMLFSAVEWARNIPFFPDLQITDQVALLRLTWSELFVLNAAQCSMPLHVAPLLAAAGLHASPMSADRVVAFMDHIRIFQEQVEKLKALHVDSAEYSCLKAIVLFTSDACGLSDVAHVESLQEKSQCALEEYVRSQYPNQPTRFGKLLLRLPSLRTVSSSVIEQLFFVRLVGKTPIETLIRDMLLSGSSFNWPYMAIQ
# [12] = off-target signal loss in HeLa-CEM21 co-culture – HeLa F-luc CTL cells, cherry-picked, counter-screen for HIV-1 Env fusion inhibitor project, dose response (AID 652040); format: functional, cell-based;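 also: potency for signal decrease marking cytotoxic or nonspecific inhibition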
# Phospholipase A2 = Phospholipase A2 (Homo sapiens, UniProt P04054); format: functional;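 also: confirmatory dose-response counterscreen on phospholipase A2, testing hits that came from an ultra-high-throughput screen for ATG4B inhibitors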
# Chain of Phospholipase A2 (P04054 whole entry, the tested form may be a part): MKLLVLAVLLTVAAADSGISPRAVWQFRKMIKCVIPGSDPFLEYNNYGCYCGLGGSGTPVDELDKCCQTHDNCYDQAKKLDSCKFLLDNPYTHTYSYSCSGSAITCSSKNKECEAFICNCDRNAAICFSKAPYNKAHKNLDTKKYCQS
# [13] = inhibitors of HIV Env-driven cell fusion, dose response, cherry-pick (AID 652057); format: functional, cell-based
# Cysteine protease ATG4B = target: T2, Cysteine protease ATG4B (Homo sapiens, UniProt Q9Y4P1); format: functional;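 also: Fluorescence-based dose-response confirmation assay measuring inhibition of ATG4B activity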
# T2 sequence (Q9Y4P1 whole entry): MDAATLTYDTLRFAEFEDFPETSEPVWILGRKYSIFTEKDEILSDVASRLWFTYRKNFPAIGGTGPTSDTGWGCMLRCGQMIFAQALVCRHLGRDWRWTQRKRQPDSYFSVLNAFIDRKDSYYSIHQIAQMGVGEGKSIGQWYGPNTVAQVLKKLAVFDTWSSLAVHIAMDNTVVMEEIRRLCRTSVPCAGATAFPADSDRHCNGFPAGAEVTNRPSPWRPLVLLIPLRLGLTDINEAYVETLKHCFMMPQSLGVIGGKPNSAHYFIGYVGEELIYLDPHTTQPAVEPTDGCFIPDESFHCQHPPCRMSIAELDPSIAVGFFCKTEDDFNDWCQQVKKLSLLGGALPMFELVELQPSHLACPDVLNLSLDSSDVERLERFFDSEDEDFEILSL
# [14] = Luminescence Cell-Based Dose Response HTS to Identify Inhibitors of 5'UTR Stem-Loop Driven Prion Protein mRNA Translation in H4 Neuroglioblastoma Cells. [Related pubchem assays: 1827 (Project Summary), 1813 (Primary HTS)]; format: functional
# [15] = inhibitors of firefly luciferase expression or activity, dose response, H4 neuroglioma cells, luminescence (AID 1990); format: functional, cell-based
# [16] = inhibitors of SNCA 5'UTR-driven reporter translation, confirmation, H4 neuroglioma cells, luminescence (AID 1988); format: functional, cell-based
# [17] = inhibitors of clade B AD8 Env fusion, dose response, cell-based, cherry-pick (AID 652062); format: functional;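 also: luciferase signal from cell-cell fusion driven by HIV-1 clade B AD8 Env; potency is for inhibitors of fusion seen as a drop in luminescence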
# Interleukin-8 = Interleukin-8 (Homo sapiens, UniProt P10145); assay: Dose Response confirmation of uHTS small molecule hits for cystic fibrosis induced NFkb Inhibitors in a PAF-induced IL8 counterscreen.; format: functional; conditions: read-out: IC50_Mean
# Chain of Interleukin-8 (P10145 whole entry): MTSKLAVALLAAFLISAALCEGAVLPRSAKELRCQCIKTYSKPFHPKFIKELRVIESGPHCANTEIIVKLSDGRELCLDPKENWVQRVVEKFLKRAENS
# HEK293 = assay: inhibitors of LMP1-driven NF-kB reporter, dose response, cell-based, HEK293, luciferase, cherry-pick (AID 588343); format: functional; conditions: Homo sapiens
# [18] = ZM109 Env clade C HIV-1 fusion inhibitors, dose response, HeLa effector, CEM target cells, luciferase, cherry-pick (AID 652058); format: functional, cell-based
# [19] = target: T3, Oxysterols receptor LXR-beta (Homo sapiens, UniProt P55055); format: functional, cell-based
# T3 sequence (P55055 whole entry): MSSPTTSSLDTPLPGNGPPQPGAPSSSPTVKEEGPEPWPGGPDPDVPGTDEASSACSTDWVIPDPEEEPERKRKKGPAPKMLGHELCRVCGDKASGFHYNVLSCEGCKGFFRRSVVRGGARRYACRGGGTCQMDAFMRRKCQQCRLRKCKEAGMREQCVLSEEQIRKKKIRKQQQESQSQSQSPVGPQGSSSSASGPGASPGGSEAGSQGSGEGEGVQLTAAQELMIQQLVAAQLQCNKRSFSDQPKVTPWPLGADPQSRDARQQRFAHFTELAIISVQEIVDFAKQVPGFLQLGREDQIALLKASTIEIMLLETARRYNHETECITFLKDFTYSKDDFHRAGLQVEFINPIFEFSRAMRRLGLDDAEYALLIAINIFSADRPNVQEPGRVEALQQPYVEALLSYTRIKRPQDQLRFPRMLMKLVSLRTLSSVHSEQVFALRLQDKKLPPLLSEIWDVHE
# [20] = target: DNA repair and recombination protein RAD54-like (Homo sapiens, UniProt Q92698); assay: inhibitors of human RAD54 branch migration, confirmation, biochemical, fluorescence, cherry-picked samples, dose series (AID 651657); format: functional
# Chain of DNA repair and recombination protein RAD54-like (Q92698 whole entry): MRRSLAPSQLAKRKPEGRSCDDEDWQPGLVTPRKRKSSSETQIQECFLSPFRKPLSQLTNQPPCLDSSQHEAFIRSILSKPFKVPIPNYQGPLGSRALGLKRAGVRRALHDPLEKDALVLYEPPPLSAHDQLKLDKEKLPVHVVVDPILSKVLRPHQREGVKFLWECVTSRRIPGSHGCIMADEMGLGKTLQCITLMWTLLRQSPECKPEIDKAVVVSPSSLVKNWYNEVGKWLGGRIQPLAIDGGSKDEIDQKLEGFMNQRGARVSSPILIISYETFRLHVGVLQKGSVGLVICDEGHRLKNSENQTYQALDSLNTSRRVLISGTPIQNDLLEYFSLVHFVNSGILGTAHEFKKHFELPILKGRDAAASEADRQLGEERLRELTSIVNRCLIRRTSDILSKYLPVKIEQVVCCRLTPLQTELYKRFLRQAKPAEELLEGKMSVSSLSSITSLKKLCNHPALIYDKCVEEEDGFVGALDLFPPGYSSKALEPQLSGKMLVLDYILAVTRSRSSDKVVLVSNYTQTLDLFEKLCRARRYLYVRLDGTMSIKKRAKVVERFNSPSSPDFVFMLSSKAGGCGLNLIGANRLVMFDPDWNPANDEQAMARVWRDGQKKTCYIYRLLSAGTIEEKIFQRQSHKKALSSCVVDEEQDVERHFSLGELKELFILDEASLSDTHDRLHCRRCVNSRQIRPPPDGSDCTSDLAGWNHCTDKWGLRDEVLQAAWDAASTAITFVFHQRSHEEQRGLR
# [21] = ADAM10 inhibitors, peptide cleavage, dose response, biochemical, QFRET (AID 743254);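 also: ADAM10 enzyme with the DM2 quenched FRET peptide as substrate; EDANS fluorescence gain as the protease cuts the substrate; inhibitor potency against ADAM10 proteolytic activity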
# [22] = target: Disintegrin and metalloproteinase domain-containing protein 17 (Homo sapiens, UniProt P78536); assay: ADAM17 protease inhibitors, dose response, counter-screen for ADAM10 exosite inhibitor project, biochemical, quenched FRET substrate (AID 743253)
# Chain of Disintegrin and metalloproteinase domain-containing protein 17 (P78536 whole entry, the tested form may be a part): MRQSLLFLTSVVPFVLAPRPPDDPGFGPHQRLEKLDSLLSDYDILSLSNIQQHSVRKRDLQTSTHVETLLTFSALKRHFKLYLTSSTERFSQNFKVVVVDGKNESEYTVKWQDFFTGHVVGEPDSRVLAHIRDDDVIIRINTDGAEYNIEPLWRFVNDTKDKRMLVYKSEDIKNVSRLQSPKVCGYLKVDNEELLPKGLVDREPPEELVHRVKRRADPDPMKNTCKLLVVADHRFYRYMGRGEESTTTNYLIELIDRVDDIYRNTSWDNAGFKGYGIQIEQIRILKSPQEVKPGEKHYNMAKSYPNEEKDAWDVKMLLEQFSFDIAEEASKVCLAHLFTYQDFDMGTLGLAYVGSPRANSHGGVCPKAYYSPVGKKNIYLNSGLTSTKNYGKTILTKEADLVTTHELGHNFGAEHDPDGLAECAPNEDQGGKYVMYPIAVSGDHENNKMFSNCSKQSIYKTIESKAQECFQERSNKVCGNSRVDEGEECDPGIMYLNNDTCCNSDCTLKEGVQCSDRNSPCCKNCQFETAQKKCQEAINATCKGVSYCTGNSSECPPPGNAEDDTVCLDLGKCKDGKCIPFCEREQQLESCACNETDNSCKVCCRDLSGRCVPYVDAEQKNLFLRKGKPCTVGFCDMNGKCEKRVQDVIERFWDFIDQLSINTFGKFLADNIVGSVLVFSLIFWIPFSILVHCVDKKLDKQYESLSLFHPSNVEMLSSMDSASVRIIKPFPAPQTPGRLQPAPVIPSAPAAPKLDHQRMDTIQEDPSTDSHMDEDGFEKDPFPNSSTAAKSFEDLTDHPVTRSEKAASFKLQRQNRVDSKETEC
# [23] = Fluorescence-based cell-based high throughput dose response assay for inhibitors of the interaction of nucleotide-binding oligomerization domain containing 2 (NOD2) and the receptor-interacting serine-threonine kinase 2 (RIPK2).; format: functional; conditions: Homo sapiens
# Beta Lactamase = Beta Lactamase (Pseudomonas aeruginosa, UniProt Q932Y6); assay: beta-lactamase reporter inhibitor potency, dose response, artefact control for NOD2-RIPK2 interaction inhibitor project, BLA reporter cells, FRET fluorescence (AID 651552); format: functional, cell-based
# Chain of Beta Lactamase (Q932Y6 whole entry): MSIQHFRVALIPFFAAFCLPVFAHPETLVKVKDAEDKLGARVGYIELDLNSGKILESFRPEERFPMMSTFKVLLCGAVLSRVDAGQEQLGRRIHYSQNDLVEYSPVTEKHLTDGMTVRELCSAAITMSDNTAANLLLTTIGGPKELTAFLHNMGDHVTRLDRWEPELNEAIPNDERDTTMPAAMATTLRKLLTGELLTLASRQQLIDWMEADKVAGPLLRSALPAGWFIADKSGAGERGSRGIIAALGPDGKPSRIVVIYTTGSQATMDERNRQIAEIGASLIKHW
# Protein Tat = Protein Tat (Human immunodeficiency virus type 1 group M subtype B (isolate HXB2)(HIV-1), UniProt P04608); format: functional;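 also: tat binding to TAR RNA read out by fluorescence polarization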
# Chain of Protein Tat (P04608 whole entry): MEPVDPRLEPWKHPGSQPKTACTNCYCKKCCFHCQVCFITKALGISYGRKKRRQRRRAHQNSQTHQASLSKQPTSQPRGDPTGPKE
# [24] = Luminescence Cell-Based Dose Confirmation HTS to Identify Inhibitors of Platelet Dense Granule Release. [Related pubchem assays: 1663 (Primary HTS), 1678 (Summary of Project)]; format: functional
# [25] = target: Luciferin 4-monooxygenase (Photinus pyralis, UniProt P08659); assay: firefly luciferase enzyme inhibitors, dose response, biochemical, luminescence (AID 1891)
# [26] = target: T3, Oxysterols receptor LXR-beta; format: functional, cell-based; remark: listed apart in the source
# [27] = NIH:OVCAR-3 ovarian cancer cell cytotoxicity, dose response, PAX8 inhibitor project, plate reader, dry powder samples (AID 743044); format: functional, cell-based
# Paired box protein Pax-8 = Paired box protein Pax-8 (Homo sapiens, UniProt Q06710); assay: inhibitors of PAX8-driven TPO luciferase reporter, dose response, RMG-I cells, cherry-pick (AID 687027); format: functional, cell-based;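 also: luciferase reporter driven by Pax8 target thyroperoxidase promoter measured by SteadyGlo luminescence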
# Chain of Paired box protein Pax-8 (Q06710 whole entry): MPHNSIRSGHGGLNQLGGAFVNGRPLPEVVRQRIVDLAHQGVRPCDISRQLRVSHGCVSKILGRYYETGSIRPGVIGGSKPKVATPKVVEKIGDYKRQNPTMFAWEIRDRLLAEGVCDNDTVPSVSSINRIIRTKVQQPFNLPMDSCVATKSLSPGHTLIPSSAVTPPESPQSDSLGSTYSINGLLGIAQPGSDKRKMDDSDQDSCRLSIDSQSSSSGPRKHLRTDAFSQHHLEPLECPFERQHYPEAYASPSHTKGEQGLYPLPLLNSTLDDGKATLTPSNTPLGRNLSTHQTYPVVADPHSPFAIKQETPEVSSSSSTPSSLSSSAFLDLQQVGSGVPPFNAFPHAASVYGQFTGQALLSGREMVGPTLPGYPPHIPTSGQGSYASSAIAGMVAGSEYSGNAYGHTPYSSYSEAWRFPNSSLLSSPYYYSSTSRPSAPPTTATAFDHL
# [28] = IGROV1 ovarian cancer cell cytotoxicity, dose response, PAX8 inhibitor project, plate reader, dry powder samples (AID 743043); format: functional, cell-based; conditions: IGROV-1
# [29] = target: G-protein coupled receptor 183 (Homo sapiens, UniProt P32249); assay: SAR confirmation of small molecule antagonists of the EBI2 receptor via a luminescent beta-arrestin assa.; format: functional
# Chain of G-protein coupled receptor 183 (P32249 whole entry): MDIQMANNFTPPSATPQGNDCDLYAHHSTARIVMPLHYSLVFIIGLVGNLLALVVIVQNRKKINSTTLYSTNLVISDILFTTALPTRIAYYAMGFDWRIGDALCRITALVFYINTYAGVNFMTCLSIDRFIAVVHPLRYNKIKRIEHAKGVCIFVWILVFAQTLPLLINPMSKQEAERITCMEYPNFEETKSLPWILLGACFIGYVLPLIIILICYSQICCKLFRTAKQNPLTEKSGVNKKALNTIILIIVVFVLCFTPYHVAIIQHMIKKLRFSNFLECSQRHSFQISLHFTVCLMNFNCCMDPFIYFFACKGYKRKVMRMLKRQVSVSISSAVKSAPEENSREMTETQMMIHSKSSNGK
# [30] = target: Mitochondrial peptide methionine sulfoxide reductase (Bos taurus, UniProt P54149); format: functional;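 also: absorbance read-out, biochemical high-throughput dose-response screen for MsrA inhibitors, confirmatory; recombinant bovine MsrA coupled to E. coli TrxB with NADPH and selenocystamine; potency is for inhibitors of MsrA activity on DMSO substrate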
# Chain of Mitochondrial peptide methionine sulfoxide reductase (P54149 whole entry): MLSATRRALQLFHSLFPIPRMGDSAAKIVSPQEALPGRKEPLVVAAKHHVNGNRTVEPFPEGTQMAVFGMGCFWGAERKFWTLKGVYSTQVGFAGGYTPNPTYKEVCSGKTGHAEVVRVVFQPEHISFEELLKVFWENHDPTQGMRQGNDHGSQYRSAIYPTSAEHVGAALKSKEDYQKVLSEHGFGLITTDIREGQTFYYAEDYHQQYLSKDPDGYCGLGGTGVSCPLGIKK
# Cytochrome P450 2D6 = Cytochrome P450 2D6 (Homo sapiens, UniProt P10635);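 also: CYP2D6 member of a cytochrome P450 panel assay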
# Chain of Cytochrome P450 2D6 (P10635 whole entry): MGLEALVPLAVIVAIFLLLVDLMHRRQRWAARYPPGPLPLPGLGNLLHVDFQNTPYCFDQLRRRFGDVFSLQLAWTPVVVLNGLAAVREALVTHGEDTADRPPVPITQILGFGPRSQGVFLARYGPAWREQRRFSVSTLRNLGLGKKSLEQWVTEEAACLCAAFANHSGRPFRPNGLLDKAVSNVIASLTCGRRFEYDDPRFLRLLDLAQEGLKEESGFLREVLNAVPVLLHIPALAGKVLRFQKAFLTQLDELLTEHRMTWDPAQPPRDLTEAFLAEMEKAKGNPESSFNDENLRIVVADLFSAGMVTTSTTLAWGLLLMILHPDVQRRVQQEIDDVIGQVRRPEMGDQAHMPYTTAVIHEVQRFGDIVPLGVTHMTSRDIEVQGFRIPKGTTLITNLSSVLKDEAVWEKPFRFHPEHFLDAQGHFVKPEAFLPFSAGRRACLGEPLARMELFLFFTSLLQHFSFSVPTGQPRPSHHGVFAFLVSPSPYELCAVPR
# [31] = target: Dual specificity tyrosine-phosphorylation-regulated kinase 1A (Rattus norvegicus, UniProt Q63470); format: biochemical, Homo sapiens
compound,measurement,setting,value
CC(C)c1nc(SCC(=O)Nc2cccc(C(F)(F)F)c2)c2c(=O)n(C)c(=O)n(C)c2n1,AC50,[1],13.2 µM (active)
same,AC50,[2],2.54 µM (active)
same,AC50,[3],3.53 µM (active)
same,AC50,[4],2.7 µM (active)
same,AC50,[5],> 70 µM (inactive)
Nc1nc(COc2ccccc2C=O)nc(Nc2ccccc2)n1,IC50,[6],52.1 µM (active)
same,IC50,[7],36.7 µM (active)
COCCN1Cc2cc(O)n3c(nc4ccccc43)c2C1=N,EC50,Kallikrein-7,> 69.5 µM (inactive)
O=C(NC12CC3CC(CC(C3)C1)C2)c1ccc(-c2ccccc2Cl)o1,AC50,[8],3.35 µM (active)
same,AC50,[9],80.2 µM (active)
CCOC(=O)c1cnn2c(C(F)(F)F)cc(-c3cn(C)nc3C)nc12,EC50,Kallikrein-7,33.2 µM (inactive)
CCOC(=O)c1cnc(-n2nc(C)cc2C)nc1NC1CCCC1,EC50,Streptococcus,5.64 µM (active)
same,EC50,[10],2.69 µM (active)
same,AC50,[1],7.1 µM (active)
same,AC50,[4],4.4 µM (active)
same,AC50,INS1,2.73 µM (active)
same,IC50,[11],7.91 µM (active)
same,AC50,[5],8.6 µM (active)
NC(=O)c1sc2nc3c(c(-c4ccccc4)c2c1N)CCC3,AC50,[12],10.2 µM (active)
same,IC50,Phospholipase A2,8.38 µM (active)
same,AC50,[13],1.87 µM (active)
same,IC50,Cysteine protease ATG4B,12.3 µM (active)
same,EC50,[14],6.39 µM (active)
same,EC50,[15],25.6 µM (active)
same,EC50,[16],16.6 µM (active)
same,AC50,[17],1.55 µM (active)
same,IC50,Interleukin-8,15.3 µM (inactive)
same,AC50,HEK293,14.6 µM (active)
same,AC50,[18],0.736 µM (active)
Cc1cc2nc(-c3cccnc3SCC(=O)NCc3ccco3)[nH]c2cc1C,EC50,[19],> 67.6 µM (inactive)
CCOC(=O)c1cnc2c(C)c(Cl)ccc2c1NCCCN1CCOCC1,AC50,[20],8.62 µM (active)
Cc1ccc(S(=O)(=O)N2CCC(=O)N2)cc1,IC50,[21],> 69.6 µM (inactive)
same,IC50,[22],> 69.6 µM (inactive)
O=C1N/C(=C/c2ccc(N3CCOCC3)o2)C(=O)N1c1cccc(Cl)c1,IC50,[23],7.65 µM (active)
same,IC50,Beta Lactamase,21.3 µM (inactive)
Cc1ccc(Nc2ncccc2C(N)=O)cc1[N+](=O)[O-],EC50,[19],> 67.6 µM (inactive)
O=C(NC1CCCC1)C(c1ccco1)N(Cc1ccccc1)C(=O)c1csnn1 (stereo not given),IC50,Protein Tat,> 100 µM (active)
same,EC50,[24],> 112 µM (not active)
same,EC50,[25],> 112 µM (not active)
CSc1ccc(C2NN=C(c3ccccc3)S2)cc1 (stereo not given),EC50,cells,> 67.6 µM (inactive)
same,EC50,[26],> 67.6 µM (inactive)
COc1ccc(Nc2nnc(-c3ccc(C(N)=O)cc3)c3ccccc23)cc1,AC50,[9],104 µM (active)
COc1cccc2c(SCC(=O)N/N=C/c3ccccc3)cc(C)nc12,IC50,Interleukin-8,11.3 µM (inactive)
Cc1ccc(S(=O)(=O)Nc2ccc3c(c2)C(=O)N([C@H](C)CO)C[C@@H](C)[C@@H](CN(C)Cc2ccc(C(F)(F)F)cc2)OCCCC[C@H](C)O3)cc1,AC50,[27],18.1 µM (active)
same,AC50,Paired box protein Pax-8,4.18 µM (active)
same,AC50,[28],43.5 µM (active)
O=C(CSc1nnc(-c2cccs2)n1Cc1ccco1)Nc1ccc(Oc2ccccc2)cc1,IC50,[21],> 69.5 µM (inactive)
same,IC50,[22],> 69.5 µM (inactive)
O=[N+]([O-])c1cccc(/N=C/C=C(\O)c2cccs2)c1,EC50,cells,> 67.5 µM (inactive)
same,EC50,[26],> 67.5 µM (inactive)
O=C(/C=C/c1ccc(Cl)c(Cl)c1)N1CCN(Cc2ccc(Cl)cc2)CC1,IC50,[29],0.0143 µM (active)
O=C(/C=C/c1cc(Br)ccc1F)N1CCN(S(=O)(=O)c2ccc(Br)cc2)CC1,IC50,[29],0.743 µM (active)
COc1cc2c(cc1O)C[C@H]1c3c(cc(O)c(OC)c3-2)CCN1C [BOLDINE],IC50,[30],47.8 µM (inactive)
same,AC50,Cytochrome P450 2D6,6.31 µM (inconclusive)
same,AC50,[31],4.84 µM (active)
